According to US9409866B2, “Pyridine-2-amides useful as CB2 agonists” (Hoffmann-La Roche Inc., priority 2012, dated 2016):
pEC50: −log10 of the molar value. Like-named read-outs stand apart in the source and are kept apart here.

Key:
human CB1 receptors = human CB1 receptors (Homo sapiens (Human), UniProt P21554); assay: functional cAMP assay, CHO cells expressing human CB1; format: cell-based; settings: functional cAMP assay, CHO cells expressing human CB1; for pEC50: read-out: Human CB1 EC50
Outline: (§1)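 Compound exposure lasted 30 min at 30 °C in IBMX (1 mM)-containing Krebs Ringer bicarbonate buffer, applied to human CB1- or CB2-expressing CHO cells. Lysates were read by time-resolved FRET cAMP detection, converted via cAMP standard curve (10 μM–0.13 nM), and EC50 values calculated.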

human CB2 receptors = human CB2 receptors (Homo sapiens (Human), UniProt P34972); assay: functional cAMP assay, CHO cells expressing human CB2; format: cell-based; settings: for pEC50: read-out: Human CB2 EC50
Outline: as §1

Sequence of human CB1 receptors (P21554 whole entry): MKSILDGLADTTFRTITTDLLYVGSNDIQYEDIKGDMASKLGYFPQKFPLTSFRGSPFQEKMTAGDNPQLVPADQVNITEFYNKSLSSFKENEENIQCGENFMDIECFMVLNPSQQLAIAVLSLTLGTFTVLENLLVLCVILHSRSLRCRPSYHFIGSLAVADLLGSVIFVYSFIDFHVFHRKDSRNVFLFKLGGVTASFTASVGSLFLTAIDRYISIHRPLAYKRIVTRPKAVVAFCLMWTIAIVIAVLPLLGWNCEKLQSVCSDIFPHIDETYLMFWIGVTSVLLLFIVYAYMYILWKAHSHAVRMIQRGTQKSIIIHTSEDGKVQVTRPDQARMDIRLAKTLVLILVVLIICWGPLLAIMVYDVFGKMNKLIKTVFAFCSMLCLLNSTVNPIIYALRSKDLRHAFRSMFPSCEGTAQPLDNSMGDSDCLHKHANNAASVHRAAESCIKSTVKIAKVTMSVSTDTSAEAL
Sequence of human CB2 receptors (P34972 whole entry): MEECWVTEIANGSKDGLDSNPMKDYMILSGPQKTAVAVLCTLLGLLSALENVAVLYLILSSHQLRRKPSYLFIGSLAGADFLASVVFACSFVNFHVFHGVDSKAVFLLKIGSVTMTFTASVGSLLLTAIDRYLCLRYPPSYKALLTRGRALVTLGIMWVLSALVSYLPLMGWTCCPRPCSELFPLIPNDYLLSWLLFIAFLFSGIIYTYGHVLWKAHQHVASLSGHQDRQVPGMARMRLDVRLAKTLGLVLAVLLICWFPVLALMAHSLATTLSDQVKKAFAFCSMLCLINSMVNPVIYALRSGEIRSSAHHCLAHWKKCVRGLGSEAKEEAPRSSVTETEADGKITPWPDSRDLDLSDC

Row | SMILES | pEC50 (human CB1 receptors) | pEC50 (human CB2 receptors) | EC50 (human CB1 receptors; Human CB1 EC50 (uM)) | EC50 (human CB2 receptors; Human CB2 EC50 (uM))
1 | C[C@H](Oc1cc(C(=O)NC(C(=O)N2CCC2)C(C)(C)C)ncc1C1CC1)C(F)(F)F (stereo partly drawn) [Example 202, N-[1-(azetidin-1-yl)-3,3-dimethyl-1-oxobutan-2-yl]-5-cyclopropyl-4-[(2S)-1,1,1-trifluoropropan-2-yl]oxypyridine-2-carboxamide] | < 5.00 | 8.66 |  | 
2 | C[C@H](Oc1cc(C(=O)NC(C(=O)N2CC(F)(F)C2)C(C)(C)C)ncc1C1CC1)C(F)(F)F (stereo partly drawn) [Example 203, 5-cyclopropyl-N-[1-(3,3-difluoroazetidin-1-yl)-3,3-dimethyl-1-oxobutan-2-yl]-4-[(2S)-1,1,1-trifluoropropan-2-yl]oxypyridine-2-carboxamide] | < 5.00 | 8.29 |  | 
3 | C[C@H](Oc1cc(C(=O)NC(C(=O)N2CCC23COC3)C(C)(C)C)ncc1C1CC1)C(F)(F)F (stereo partly drawn) [Example 204, 5-cyclopropyl-N-[3,3-dimethyl-1-(6-oxa-1-azaspiro[3.3]heptan-1-yl)-1-oxobutan-2-yl]-4-[(2S)-1,1,1-trifluoropropan-2-yl]oxypyridine-2-carboxamide] | < 5.00 | 7.19 |  | 
4 | C[C@H](Oc1cc(C(=O)NC(c2noc(N)n2)C(C)(C)C)ncc1C1CC1)C(F)(F)F (stereo partly drawn) [Example 213, N-[1-(5-amino-1,2,4-oxadiazol-3-yl)-2,2-dimethylpropyl]-5-cyclopropyl-4-[(2S)-1,1,1-trifluoropropan-2-yl]oxypyridine-2-carboxamide] | < 5.00 | 7.95 |  | 
5 | Cc1nc(C(NC(=O)c2cc(O[C@@H](C)C(F)(F)F)c(C3CC3)cn2)C(C)(C)C)no1 (stereo partly drawn) [Example 214, 5-cyclopropyl-N-[2,2-dimethyl-1-(5-methyl-1,2,4-oxadiazol-3-yl)propyl]-4-[(2S)-1,1,1-trifluoropropan-2-yl]oxypyridine-2-carboxamide] | < 5.00 | 8.10 |  | 
6 | CC1(COc2cc(C(=O)NC(C)(C)c3nnc(-c4ccccc4)o3)ncc2C2CC2)COC1 [Example 215, 5-cyclopropyl-4-[(3-methyloxetan-3-yl)methoxy]-N-[2-(5-phenyl-1,3,4-oxadiazol-2-yl)propan-2-yl]pyridine-2-carboxamide] |  |  | > 10 µM | 0.0309 µM
7 | C[C@H](Oc1cc(C(=O)NC(c2nnn(C)n2)C(C)(C)C)ncc1C1CC1)C(F)(F)F (stereo partly drawn) [Example 216, 5-cyclopropyl-N-[2,2-dimethyl-1-(2-methyltetrazol-5-yl)propyl]-4-[(2S)-1,1,1-trifluoropropan-2-yl]oxypyridine-2-carboxamide] | < 5.00 | 8.33 |  | 
8 | C[C@H](Oc1cc(C(=O)NC(c2noc(N)n2)C(C)(C)C)ncc1C1CC1)C(F)(F)F (stereo partly drawn) [Example 218, N-[1-(5-amino-1,2,4-oxadiazol-3-yl)-2,2-dimethylpropyl]-5-cyclopropyl-4-[(2S)-1,1,1-trifluoropropan-2-yl]oxypyridine-2-carboxamide] | < 5.00 | 8.17 |  | 
9 | C[C@H](Oc1cc(C(=O)NC(c2noc(N)n2)C(C)(C)C)ncc1C1CC1)C(F)(F)F (stereo partly drawn) [Example 219, N-[1-(5-amino-1,2,4-oxadiazol-3-yl)-2,2-dimethylpropyl]-5-cyclopropyl-4-[(2S)-1,1,1-trifluoropropan-2-yl]oxypyridine-2-carboxamide] | < 5.00 | 9.00 |  | 
10 | Cc1nc(C(NC(=O)c2cc(O[C@@H](C)C(F)(F)F)c(C3CC3)cn2)C(C)(C)C)no1 (stereo partly drawn) [Example 220, 5-cyclopropyl-N-[2,2-dimethyl-1-(5-methyl-1,2,4-oxadiazol-3-yl)propyl]-4-[(2S)-1,1,1-trifluoropropan-2-yl]oxypyridine-2-carboxamide] | < 5.00 | 8.57 |  | 
11 | Cc1nc(C(NC(=O)c2cc(O[C@@H](C)C(F)(F)F)c(C3CC3)cn2)C(C)(C)C)no1 (stereo partly drawn) [Example 221, 5-cyclopropyl-N-[2,2-dimethyl-1-(5-methyl-1,2,4-oxadiazol-3-yl)propyl]-4-[(2S)-1,1,1-trifluoropropan-2-yl]oxypyridine-2-carboxamide] | < 5.00 | 8.08 |  | 
12 | NC(=O)CC1(NC(=O)c2cc(OCC3CC3)c(N3CC(F)(F)C3)cn2)COC1 [Example 222, N-[3-(2-amino-2-oxoethyl)oxetan-3-yl]-4-(cyclopropylmethoxy)-5-(3,3-difluoroazetidin-1-yl)pyridine-2-carboxamide] | < 5.00 | 7.33 |  | 
13 | NC(=O)CC1(NC(=O)c2cc(OCC(F)(F)F)c(N3CC(F)(F)C3)cn2)COC1 [Example 223, N-[3-(2-amino-2-oxoethyl)oxetan-3-yl]-5-(3,3-difluoroazetidin-1-yl)-4-(2,2,2-trifluoroethoxy)pyridine-2-carboxamide] | < 5.00 | 6.78 |  | 
14 | CNC(=O)CC(C)(NC(=O)c1cc(OCC(F)(F)F)c(C2CC2)cn1)C1CC1 (stereo not drawn) [Example 229, 5-cyclopropyl-N-[2-cyclopropyl-4-(methylamino)-4-oxobutan-2-yl]-4-(2,2,2-trifluoroethoxy)pyridine-2-carboxamide] | < 5.00 | 7.94 |  | 
15 | CC(CC(N)=O)(NC(=O)c1cc(OCC(F)(F)F)c(C2CC2)cn1)C1CC1 (stereo not drawn) [Example 230, N-(4-amino-2-cyclopropyl-4-oxobutan-2-yl)-5-cyclopropyl-4-(2,2,2-trifluoroethoxy)pyridine-2-carboxamide] | < 5.00 | 9.05 |  | 
16 | CNC(=O)CC1(NC(=O)c2cc(OCC(F)(F)F)c(C3CC3)cn2)COC1 [Example 231, 5-cyclopropyl-N-[3-[2-(methylamino)-2-oxoethyl]oxetan-3-yl]-4-(2,2,2-trifluoroethoxy)pyridine-2-carboxamide] | < 5.00 | 6.26 |  | 
17 | CNC(=O)CC1(NC(=O)c2cc(O[C@@H](C)C(F)(F)F)c(C3CC3)cn2)COC1 [Example 232, 5-cyclopropyl-N-[3-[2-(methylamino)-2-oxoethyl]oxetan-3-yl]-4-[(2S)-1,1,1-trifluoropropan-2-yl]oxypyridine-2-carboxamide] | < 5.00 | 6.93 |  | 
18 | CNC(=O)CC1(NC(=O)c2cc(OCC(F)(F)F)c(N3CC(F)(F)C3)cn2)COC1 [Example 233, 5-(3,3-difluoroazetidin-1-yl)-N-[3-[2-(methylamino)-2-oxoethyl]oxetan-3-yl]-4-(2,2,2-trifluoroethoxy)pyridine-2-carboxamide] | < 5.00 | 6.04 |  | 
19 | CCC(CC)(NC(=O)c1cc(OCC2(C)COC2)c(C2CC2)cn1)C(=O)NCCCF [Example 234, 5-cyclopropyl-N-[3-(3-fluoropropylcarbamoyl)pentan-3-yl]-4-[(3-methyloxetan-3-yl)methoxy]pyridine-2-carboxamide] | < 5.00 | 6.34 |  | 
20 | CCC(CC)(NC(=O)c1cc(OCC2(C)COC2)c(C2CC2)cn1)C(=O)NCC(F)CCl (stereo not drawn) [Example 235, N-[3-[[3-chloro-2-fluoropropyl]carbamoyl]pentan-3-yl]-5-cyclopropyl-4-[(3-methyloxetan-3-yl)methoxy]pyridine-2-carboxamide] | < 5.00 | 6.53 |  | 
21 | CNC(=O)C(NC(=O)c1cc(OCC(F)(F)F)c(C2CC2)cn1)C(C)(C)O (stereo not drawn) [Example 236, 5-cyclopropyl-N-[3-hydroxy-3-methyl-1-(methylamino)-1-oxobutan-2-yl]-4-(2,2,2-trifluoroethoxy)pyridine-2-carboxamide] | < 5.00 | 7.29 |  | 
